Measured values taken from patent US11209437B2, “Fluorescent probe and preparation method and use thereof” (Fluorescence Diagnosis (shanghai) Biotech Company Ltd., priority 2016, dated 2021).

Legend:
[1] = Viscosity responsiveness: fluorescence emission spectra of probes in glycerol and methanol; format: physicochemical; details: for Emission wavelength: excited at maximum excitation wavelength of each probe; for Fluorescence ratio in glycerol to methanol: probe 1×10^−5 M
Protocol: Probes 1 to 98, 101, 103, 105, 107, 109, 111, 114, 117, and 120, and the reference probes 99, 100, 102, 104, 106, 108, 110, 112, 113, 115, 116, 118, 119, 121, BG-CCVJ and BG-Gly-CCVJ were dissolved in dimethyl sulfoxide, respectively, to prepare mother liquors having a concentration of 1×10^−2 M, to each of which glycerol and methanol were added and uniformly mixed, to prepare solutions finally having a concentration of 1×10^−5 M. Depending on the probes, fluorescence emission spectra of the probes were detected successively with the maximum excitation wavelength of each probe under the same conditions, and the results were shown in Table 1.
That is, these probes are sensitive to viscosity changes and have viscosity responsiveness.

[2] = Fluorescence of free probe prior to binding to a protein tag; format: physicochemical
Protocol: (§1) Probes were mixed with corresponding protein tags to obtain mixed samples, in which the final probe concentration was 5 μM, and the final protein tag concentration was 10 μM. The mixed samples were incubated 37° C. for 1 hr, fluorescence spectrophotometer was used to detect the change in fluorescence intensity, and the results are shown in Table 1.
(§2) From the quantum yield of probe bound to protein tag, after reacting with the protein tags, the probes of the Examples could be detected to have significant signal enhancement in corresponding excitation transmission channels, the fluorescence activation multiple reached several hundreds to a thousand or more, and the brightness was high, which illustrates that after the probes of the Examples are bound to the protein tags, fluorescence of the probes can be activated, and the probes have good fluorescent molecular switching properties. In contrast, though the fluorescence of the reference probes could also be activated, the quantum yield of activated fluorescence was very low, and the brightness was very poor. In particular, in view of comparison results between probe 98 and reference probe 99, probe 101 and reference probe 102, probe 103 and reference probe 104, probe 105 and reference probe 106, probe 107 and reference probe 108, probe 109 and reference probe 110, probe 111 and reference probe 112, probe 114 and reference probe 115, probe 117 and reference probe 118, probe 120 and reference probe 121 in Table 1, for the same fluorescent dye, when the ligand is connected to the electron donor part of the fluorescent dye, the fluorescence activation brightness of the probe is much higher than the reference probe in which ligand is connected to the electron acceptor part of the fluorescent dye.

SNAP protein tags = target: T1, SNAP protein tags (Homo sapiens, UniProt P16455, A127T/A154D/C150Q/C62A/E30R/G131K/G132T/G153L/K125A/K32I/L33F/M134L/N157G/Q115S/Q116H/R128A/R135S/S151G/S152D/S159E); assay: Fluorescence activation of probe after incubation with corresponding protein tag (SNAP); format: biochemical; details: probe 5 μM, protein tag 10 μM, 37° C., 1 hr
T1 sequence (P16455 1-182 E30R/K32I/L33F/C62A/Q115S/Q116H/K125A/A127T/R128A/G131K/G132T/M134L/R135S/C150Q/S151G/S152D/G153L/A154D/N157G/S159E): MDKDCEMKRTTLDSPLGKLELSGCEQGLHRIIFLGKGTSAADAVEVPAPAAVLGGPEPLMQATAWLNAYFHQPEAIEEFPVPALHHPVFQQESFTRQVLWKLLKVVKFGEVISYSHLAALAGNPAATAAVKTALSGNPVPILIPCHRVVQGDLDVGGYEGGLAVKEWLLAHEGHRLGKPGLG
Protocol: as §1, §2

Row | Emission wavelength [1] | Fluorescence ratio in glycerol to methanol [1] | Quantum yield of free probe [2] | Fluorescence activation multiple (SNAP protein tags) | Quantum yield of probe bound to protein tag (SNAP protein tags) | SMILES
1 | 555 nm | 790 | <0.001 | 1174 | 0.15 | CN(CCOC(=O)NCc1ccc(COc2cc(Cl)nc(N)n2)cc1)c1ccc(/C=C(\C#N)c2nc3ccccc3o2)cc1 [probe 5]
2 | 610 nm | 1183 | <0.001 | 989 | 0.37 | CN(CCOC(=O)NCc1ccc(COc2cc(Cl)nc(N)n2)cc1)c1ccc(/C=C(\C#N)c2nc3ccccc3s2)cc1 [probe 6]
3 | 482 nm | 655 | <0.001 | 431 | 0.39 | CC(C)(C)OC(=O)/C(C#N)=C/c1ccc(N(CCO)CCOC(=O)NCc2ccc(COc3nc(N)nc4[nH]cnc34)cc2)cc1 [probe 10]
4 | 481 nm | 422 | 0.0013 | 270 | 0.36 | CC(C)(C)OC(=O)/C(C#N)=C/c1ccc(N(CCOC(=O)NCCCS(=O)(=O)O)CCOC(=O)NCc2ccc(COc3nc(N)nc4[nH]cnc34)cc2)cc1 [probe 11]
5 | 482 nm | 405 | 0.0012 | 351 | 0.41 | COCCOCCOCCOCCOCCN(CCOC(=O)NCc1ccc(COc2nc(N)nc3[nH]cnc23)cc1)c1ccc(/C=C(\C#N)C(=O)OC(C)(C)C)cc1 [probe 12]
6 | 483 nm | 391 | <0.001 | 315 | 0.29 | CN(CCC(=O)NCc1ccc(COc2nc(N)nc3[nH]cnc23)cc1)c1ccc(/C=C(\C#N)C(=O)OC(C)(C)C)cc1 [probe 13]
7 | 531 nm | 560 | <0.001 | 771 | 0.18 | CN1C(=O)/C(=C/c2ccc(N(C)CCOC(=O)NCc3ccc(COc4nc(N)nc5[nH]cnc45)cc3)cc2)N=C1c1ccccc1 [probe 14]
8 | 580 nm | 311 | <0.001 | 359 | 0.21 | CN1C(=O)/C(=C/c2ccc(N(C)CCOC(=O)NCc3ccc(COc4cc(Cl)nc(N)n4)cc3)cc2)N=C1/C=C/c1ccccc1 [probe 16]
9 | 535 nm | 301 | 0.0017 | 265 | 0.45 | CN(CCOC(=O)NCc1ccc(COc2nc(N)nc3[nH]cnc23)cc1)c1ccc(C2=C(C#N)C(=C(C#N)C#N)OC2(C)C)cc1 [probe 18]
10 | 535 nm | 299 | 0.0012 | 361 | 0.45 | CN(CCOC(=O)NCc1ccc(COc2cc(Cl)nc(N)n2)cc1)c1ccc(C2=C(C#N)C(=C(C#N)C#N)OC2(C)C)cc1 [probe 19]
11 | 590 nm | 1821 | <0.001 | 610 | 0.36 | CN(CCOC(=O)NCc1ccc(COc2nc(N)nc3[nH]cnc23)cc1)c1cc2sc(/C=C(\C#N)c3nc4ccccc4o3)cc2s1 [probe 22]
12 | 610 nm | 1235 | <0.001 | 712 | 0.42 | CN(CCOC(=O)NCc1ccc(COc2nc(N)nc3[nH]cnc23)cc1)c1cc2sc(/C=C(\C#N)c3nc4ccccc4s3)cc2s1 [probe 23]
13 | 555 nm | 1681 | <0.001 | 590 | 0.48 | CN(CCOC(=O)NCc1ccc(COc2cc(Cl)nc(N)n2)cc1)c1cc2sc(/C=C(\C#N)C(=O)OC(C)(C)C)cc2s1 [probe 24]
14 | 590 nm | 1621 | <0.001 | 670 | 0.36 | CN(CCOC(=O)NCc1ccc(COc2cc(Cl)nc(N)n2)cc1)c1cc2sc(/C=C(\C#N)c3nc4ccccc4o3)cc2s1 [probe 25]
15 | 610 nm | 1123 | <0.001 | 910 | 0.42 | CN(CCOC(=O)NCc1ccc(COc2cc(Cl)nc(N)n2)cc1)c1cc2sc(/C=C(\C#N)c3nc4ccccc4s3)cc2s1 [probe 26]
16 | 607 nm | 1135 | <0.001 | 421 | 0.41 | CN(CCOC(=O)NCc1ccc(COc2nc(N)nc3[nH]cnc23)cc1)c1ccc2cc(/C=C(\C#N)c3nc4ccccc4o3)sc2c1 [probe 31]
17 | 609 nm | 997 | <0.001 | 638 | 0.46 | CN(CCOC(=O)NCc1ccc(COc2nc(N)nc3[nH]cnc23)cc1)c1ccc2cc(/C=C(\C#N)c3nc4ccccc4s3)sc2c1 [probe 32]
18 | 570 nm | 1781 | <0.001 | 957 | 0.55 | CN(CCOC(=O)NCc1ccc(COc2cc(Cl)nc(N)n2)cc1)c1ccc2cc(/C=C(\C#N)C(=O)OC(C)(C)C)sc2c1 [probe 33]
19 | 570 nm | 1258 | 0.001 | 488 | 0.50 | CC(C)(C)OC(=O)/C(C#N)=C/c1cc2ccc(N(CCC#N)CCOC(=O)NCc3ccc(COc4nc(N)nc5[nH]cnc45)cc3)cc2s1 [probe 36]
20 | 570 nm | 1135 | 0.0012 | 469 | 0.56 | CC(C)(C)OC(=O)/C(C#N)=C/c1cc2ccc(N(CCO)CCOC(=O)NCc3ccc(COc4nc(N)nc5[nH]cnc45)cc3)cc2s1 [probe 37]
